# Results: the supplement of paper PMC10307832
# Key:
# Test in all cases: relative viability (nuclei count vs DMSO), 5 days (fraction); higher = more cells survive
# H3255 = test system: H3255
# How it was run: (§1)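 Lung cancer cell lines in 1536-well plates were dosed by pin tool the day after seeding, either with one drug alone or with a fixed anchor-drug dose plus five library-drug doses (not always all listed) in √10 steps. After 5 days, cells were fixed and their nuclei stained in one step (final 0.05% Triton X-100, 1% formaldehyde, 1 ug/ml Hoechst), then counted on 4× images. Relative viability is the nuclei count in treated wells divided by that in vehicle wells. Values are medians of duplicate plates.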
# NCI-H2087 = test system: NCI-H2087
# How it was run: as §1
# NCI-H2023 = test system: NCI-H2023
# How it was run: as §1
# PC-3 [JPC-3] = test system: PC-3 [JPC-3]
# How it was run: as §1
# NCI-H650 = test system: NCI-H650
# How it was run: as §1
# LC-2-ad = test system: LC-2-ad
# How it was run: as §1
# CAL-12T = test system: CAL-12T
# How it was run: as §1
# 201T = test system: 201T
# How it was run: as §1
# ABC-1 = test system: ABC-1
# How it was run: as §1
# NCI-H1650 = test system: NCI-H1650
# How it was run: as §1
# NCI-H661 = test system: NCI-H661
# How it was run: as §1
# NCI-H441 = test system: NCI-H441
# How it was run: as §1
# NCI-H520 = test system: NCI-H520
# How it was run: as §1
# NCI-H460 = test system: NCI-H460
# How it was run: as §1
# NCI-H727 = test system: NCI-H727
# How it was run: as §1
# NCI-H1944 = test system: NCI-H1944
# How it was run: as §1
# BEN = test system: BEN
# How it was run: as §1
# NCI-H1915 = test system: NCI-H1915
# How it was run: as §1
# LCLC-97TM1 = test system: LCLC-97TM1
# How it was run: as §1
# NCI-H1651 = test system: NCI-H1651
# How it was run: as §1
# A-427 = test system: A-427
# How it was run: as §1
smiles,measurement,setting,value
CCN(CC)CCCCNc1ncc2cc(-c3cc(OC)cc(OC)c3)c(NC(=O)NC(C)(C)C)nc2n1 + CC(=O)c1c(C)c2cnc(Nc3ccc(N4CCNCC4)cn3)nc2n(C2CCCC2)c1=O [Palbociclib] (partner 0.5 µM),relative viability,H3255; first compound 0.01 µM,0.317
same,relative viability,H3255; first compound 0.03162 µM,0.292
same,relative viability,H3255; first compound 0.1 µM,0.388
same,relative viability,H3255; first compound 0.3162 µM,0.315
same,relative viability,H3255; first compound 1 µM,0.317
same,relative viability,NCI-H2087; first compound 0.01 µM,0.154
same,relative viability,NCI-H2087; first compound 0.03162 µM,0.219
same,relative viability,NCI-H2087; first compound 0.1 µM,0.206
same,relative viability,NCI-H2087; first compound 0.3162 µM,0.234
same,relative viability,NCI-H2087; first compound 1 µM,0.225
same,relative viability,NCI-H2023; first compound 0.01 µM,0.317
same,relative viability,NCI-H2023; first compound 0.03162 µM,0.32
same,relative viability,NCI-H2023; first compound 0.1 µM,0.348
same,relative viability,NCI-H2023; first compound 0.3162 µM,0.347
same,relative viability,NCI-H2023; first compound 1 µM,0.291
same,relative viability,PC-3 [JPC-3]; first compound 0.03162 µM,0.607
same,relative viability,PC-3 [JPC-3]; first compound 0.1 µM,0.616
same,relative viability,PC-3 [JPC-3]; first compound 0.3162 µM,0.539
same,relative viability,PC-3 [JPC-3]; first compound 1 µM,0.58
same,relative viability,NCI-H650; first compound 0.01 µM,0.282
same,relative viability,NCI-H650; first compound 0.03162 µM,0.369
same,relative viability,NCI-H650; first compound 0.1 µM,0.331
same,relative viability,NCI-H650; first compound 0.3162 µM,0.308
same,relative viability,NCI-H650; first compound 1 µM,0.32
same,relative viability,LC-2-ad; first compound 0.01 µM,0.503
same,relative viability,LC-2-ad; first compound 0.03162 µM,0.486
same,relative viability,LC-2-ad; first compound 0.1 µM,0.491
same,relative viability,LC-2-ad; first compound 0.3162 µM,0.589
same,relative viability,LC-2-ad; first compound 1 µM,0.473
same,relative viability,CAL-12T; first compound 0.01 µM,0.411
same,relative viability,CAL-12T; first compound 0.03162 µM,0.456
same,relative viability,CAL-12T; first compound 0.1 µM,0.518
same,relative viability,CAL-12T; first compound 0.3162 µM,0.419
same,relative viability,CAL-12T; first compound 1 µM,0.408
same,relative viability,201T; first compound 0.01 µM,0.395
same,relative viability,201T; first compound 0.03162 µM,0.387
same,relative viability,201T; first compound 0.1 µM,0.406
same,relative viability,201T; first compound 0.3162 µM,0.389
same,relative viability,201T; first compound 1 µM,0.372
same,relative viability,ABC-1; first compound 0.03162 µM,0.968
same,relative viability,ABC-1; first compound 0.1 µM,0.724
same,relative viability,ABC-1; first compound 0.3162 µM,0.832
same,relative viability,ABC-1; first compound 1 µM,0.574
same,relative viability,NCI-H1650; first compound 0.01 µM,0.311
same,relative viability,NCI-H1650; first compound 0.03162 µM,0.338
same,relative viability,NCI-H1650; first compound 0.1 µM,0.354
same,relative viability,NCI-H1650; first compound 0.3162 µM,0.308
same,relative viability,NCI-H1650; first compound 1 µM,0.296
same,relative viability,NCI-H661; first compound 0.01 µM,0.394
same,relative viability,NCI-H661; first compound 0.03162 µM,0.41
same,relative viability,NCI-H661; first compound 0.1 µM,0.418
same,relative viability,NCI-H661; first compound 0.3162 µM,0.444
same,relative viability,NCI-H661; first compound 1 µM,0.38
same,relative viability,NCI-H441; first compound 0.01 µM,0.193
same,relative viability,NCI-H441; first compound 0.03162 µM,0.204
same,relative viability,NCI-H441; first compound 0.1 µM,0.198
same,relative viability,NCI-H441; first compound 0.3162 µM,0.261
same,relative viability,NCI-H441; first compound 1 µM,0.193
same,relative viability,NCI-H520; first compound 0.01 µM,0.22
same,relative viability,NCI-H520; first compound 0.03162 µM,0.22
same,relative viability,NCI-H520; first compound 0.1 µM,0.217
same,relative viability,NCI-H520; first compound 0.3162 µM,0.175
same,relative viability,NCI-H520; first compound 1 µM,0.15
same,relative viability,NCI-H460; first compound 0.01 µM,0.147
same,relative viability,NCI-H460; first compound 0.03162 µM,0.222
same,relative viability,NCI-H460; first compound 0.1 µM,0.112
same,relative viability,NCI-H460; first compound 0.3162 µM,0.165
same,relative viability,NCI-H460; first compound 1 µM,0.147
same,relative viability,NCI-H727; first compound 0.01 µM,0.581
same,relative viability,NCI-H727; first compound 0.03162 µM,0.635
same,relative viability,NCI-H727; first compound 0.1 µM,0.769
same,relative viability,NCI-H727; first compound 0.3162 µM,0.697
same,relative viability,NCI-H727; first compound 1 µM,0.59
same,relative viability,NCI-H1944; first compound 0.01 µM,0.35
same,relative viability,NCI-H1944; first compound 0.03162 µM,0.345
same,relative viability,NCI-H1944; first compound 0.1 µM,0.312
same,relative viability,NCI-H1944; first compound 0.3162 µM,0.348
same,relative viability,NCI-H1944; first compound 1 µM,0.278
same,relative viability,BEN; first compound 0.01 µM,0.489
same,relative viability,BEN; first compound 0.03162 µM,0.417
same,relative viability,BEN; first compound 0.1 µM,0.493
same,relative viability,BEN; first compound 0.3162 µM,0.524
same,relative viability,BEN; first compound 1 µM,0.475
same,relative viability,NCI-H1915; first compound 0.01 µM,0.655
same,relative viability,NCI-H1915; first compound 0.03162 µM,0.528
same,relative viability,NCI-H1915; first compound 0.1 µM,0.557
same,relative viability,NCI-H1915; first compound 0.3162 µM,0.546
same,relative viability,NCI-H1915; first compound 1 µM,0.496
same,relative viability,LCLC-97TM1; first compound 0.01 µM,0.205
same,relative viability,LCLC-97TM1; first compound 0.03162 µM,0.203
same,relative viability,LCLC-97TM1; first compound 0.1 µM,0.297
same,relative viability,LCLC-97TM1; first compound 0.3162 µM,0.238
same,relative viability,LCLC-97TM1; first compound 1 µM,0.218
same,relative viability,NCI-H1651; first compound 0.01 µM,0.539
same,relative viability,NCI-H1651; first compound 0.03162 µM,0.511
same,relative viability,NCI-H1651; first compound 0.1 µM,0.547
same,relative viability,NCI-H1651; first compound 0.3162 µM,0.541
same,relative viability,NCI-H1651; first compound 1 µM,0.47
same,relative viability,A-427; first compound 0.01 µM,0.58
same,relative viability,A-427; first compound 0.03162 µM,0.475
same,relative viability,A-427; first compound 0.1 µM,0.59
same,relative viability,A-427; first compound 0.3162 µM,0.501
same,relative viability,A-427; first compound 1 µM,0.398
